Laboratory results published in patent US20260007601A1, “IONIZABLE CATIONIC LIPID COMPOUND AND COMPOSITION FOR DELIVERING NUCLEIC ACID AND USE THEREOF” (BEIJING YOUCAREKECHUANG PHARMACEUTICAL TECHNOLOGY CO., LTD., priority 2023, published 2026).

Columns and labels:
[1] = Encapsulation rate, drug loading concentration and total RNA concentration detection (RiboGreen); format: physicochemical; settings: LNP formulation of the named lipid
[2] = Particle size and polydispersity index (PDI) of nanolipid particles, dynamic light scattering; format: physicochemical; settings: LNP formulation prepared from the named cationic lipid, 25° C
Procedure: The particle size and polydispersity index (PDI) were determined by dynamic light scattering method using a Malvern laser particle size analyzer. 10 μL of liposome solution was diluted to 1 mL with RNase-free deionized water and added to a sample pool. Each sample was measured three times. The measurement conditions were: 90° scattering angle, 25° C.

female BALB/C mice = test: Mouse in vivo imaging of Fluc-mRNA LNP formulations; set-up: average radiation intensity (mRNA expression): unit not given here; settings: 10 μg Fluc-mRNA LNP intramuscularly
Summary of the method: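 Female BALB/C mice (4–6 weeks, 17–19 g) received LNP carrying 10 μg Fluc-mRNA intramuscularly. Imaging substrate given intraperitoneally at 6 h, 24 h, 48 h and 7 d; after 5 min free movement, average radiance read by IVIS Spectrum imaging.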

293T cells [3] = test: Cell survival rate assay (CCK-8); format: cell-based; settings: LNP containing 1.5 μg Fluc-mRNA, 24 hours, CCK-8
Summary of the method: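 293T cells seeded at 10,000 per well and grown overnight, then exposed for 24 h to LNPs (cationic/neutral/structured/PEG lipids 49:10:39.5:1.5) carrying 1.5 μg Fluc-mRNA, or Lipofectamine 3000. Viability read by CCK-8, 1 h incubation, absorbance at 450 nm.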

293T cells [4] = test: Fluorescence detection of Fluc-mRNA (cell transfection efficiency of LNP formulations); format: cell-based; settings: for Relative light unit (RLU): LNP containing 0.3 μg Fluc-mRNA, 24 hours; for Multiples of values that equivalent to YK-201: RLU of YK-201 / RLU of the named lipid; for Multiples of values that equivalent to YK-202: RLU of YK-202 / RLU of the named lipid; for Multiples of values that equivalent to YK-209: RLU of YK-209 / RLU of the named lipid; for Ratio relative to SM-102: RLU of the named lipid / RLU of SM-102, times that of SM-102
Summary of the method: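 293T cells at 10,000 per well, adhered overnight, then given LNPs carrying 0.3 μg Fluc-mRNA (cationic:neutral:structured:polymer-conjugated lipid 49:10:39.5:1.5 molar). After 24 h, luciferase signal read with luciferase kit reagents on an IVIS imaging system as transfection efficiency.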

In the case of `CCCCCCCCC(CCCCCC)C(=O)OCCCCCCN(CCCCO)CCCCCCOC(=O)C(CCCCCC)CCCCCCCC` (stereo not shown) [ALC-0315, reference compound], the Drug loading concentration [1] was 26.05 µg/mL, the Encapsulation rate [1] was 62.8% and the “Total RNA concentration” value [1] was 37.12 µg/mL. For the same molecule, the PDI [2] was 15.9%, the Particle size [2] was 218 nm and the “average radiation intensity (mRNA expression)” value (shortened to “average radiation intensity”) (female BALB/C mice; 6 h) was 842355. The “average radiation intensity” value (female BALB/C mice; 24 h) was 182350, the “average radiation intensity” value (female BALB/C mice; 48 h) was 38130 and the “average radiation intensity” value (female BALB/C mice; 7 d) was 6588. The Cell survival rate (293T cells [3]) was 49.96%, the “Relative light unit (RLU)” value (293T cells [4]) was 2147045 RLU and the “Multiples of values that equivalent to YK-201” value (from here on “Multiples … to YK-201”) (293T cells [4]) was 13.27. For the same molecule, the “Multiples of values that equivalent to YK-202” value (“Multiples … to YK-202” below) (293T cells [4]) was 13.95, the “Multiples of values that equivalent to YK-209” value (shortened to “Multiples … to YK-209”) (293T cells [4]) was 12.51 and the “Ratio relative to SM-102” value (293T cells [4]) was 1.29.
For `CCCCCCC(CCCCCC)CCOC(=O)CCCCCCCN(CCO)CCCCCCCC(=O)OCCC(CCCCCC)CCCCCC` [Compound 23, bis(3-hexylnonyl)8,8′-((2-hydroxyethyl)azadialkyl)dioctanoate, reference compound], the Drug loading concentration [1] was 20.7 µg/mL, the Encapsulation rate [1] was 55.2% and the “Total RNA concentration” value [1] was 32.51 µg/mL. For the same molecule, the PDI [2] was 8.6%, the Particle size [2] was 138 nm and the “average radiation intensity” value (female BALB/C mice; 6 h) was 594050. The “average radiation intensity” value (female BALB/C mice; 24 h) was 110870, the “average radiation intensity” value (female BALB/C mice; 48 h) was 32074 and the “average radiation intensity” value (female BALB/C mice; 7 d) was 5827. For the same molecule, the Cell survival rate (293T cells [3]) was 70.10%, the “Relative light unit (RLU)” value (293T cells [4]) was 1332014 RLU and the “Multiples … to YK-201” value (293T cells [4]) was 21.38. The “Multiples … to YK-202” value (293T cells [4]) was 22.49 and the “Ratio relative to SM-102” value (293T cells [4]) was 0.80.
For `CCCCCCCCCCCOC(=O)CCCCCN(CCCCCCCC(=O)OC(CCCCCCCC)CCCCCCCC)CCN(CC)CCO` [YK-204, heptadecan-9-yl-8-(2-((2-hydroxyethyl)(ethylamino))ethyl)(6-oxo-6-((undecanyloxy)hexyl)amino)octanoate], the Drug loading concentration [1] was 32.62 µg/mL, the Encapsulation rate [1] was 75.9% and the “Total RNA concentration” value [1] was 42.98 µg/mL. For the same molecule, the PDI [2] was 17.7%, the Particle size [2] was 193 nm and the “average radiation intensity” value (female BALB/C mice; 6 h) was 35245. For the same molecule, the “average radiation intensity” value (female BALB/C mice; 24 h) was 5230, the “average radiation intensity” value (female BALB/C mice; 48 h) was 2440 and the “average radiation intensity” value (female BALB/C mice; 7 d) was 754. The Cell survival rate (293T cells [3]) was 42.57%, the “Relative light unit (RLU)” value (293T cells [4]) was 363998 RLU and the “Multiples … to YK-201” value (293T cells [4]) was 78.25. The “Multiples … to YK-202” value (293T cells [4]) was 82.30, the “Multiples … to YK-209” value (293T cells [4]) was 57.85 and the “Ratio relative to SM-102” value (293T cells [4]) was 0.22.
In the case of `CCCCCCCCC(CCCCCCCC)COC(=O)CCCCCN(CCCCCC(=O)OCC(CCCCCCCC)CCCCCCCC)CCN(C)CCNC` [YK-223], the Drug loading concentration [1] was 37.51 µg/mL, the Encapsulation rate [1] was 98.3% and the “Total RNA concentration” value [1] was 38.16 µg/mL. For the same molecule, the PDI [2] was 25.8%, the Particle size [2] was 211 nm and the “average radiation intensity” value (female BALB/C mice; 6 h) was 10355. For the same molecule, the “average radiation intensity” value (female BALB/C mice; 24 h) was 1786, the “average radiation intensity” value (female BALB/C mice; 48 h) was 678 and the “average radiation intensity” value (female BALB/C mice; 7 d) was 440. For the same molecule, the Cell survival rate (293T cells [3]) was 36.64%, the “Relative light unit (RLU)” value (293T cells [4]) was 75012 RLU and the “Multiples … to YK-201” value (293T cells [4]) was 379.71. The “Multiples … to YK-202” value (293T cells [4]) was 399.37, the “Multiples … to YK-209” value (293T cells [4]) was 280.74 and the “Ratio relative to SM-102” value (293T cells [4]) was 0.05.
For `CCCCCCCCCCCCC(O)CN(C)CCCCCC(=O)OCC(CCCCCC)CCCCCCCC` (stereo not shown) [HHMA, reference compound], the Drug loading concentration [1] was 30.6 µg/mL, the Encapsulation rate [1] was 60.5% and the “Total RNA concentration” value [1] was 37.84 µg/mL. For the same molecule, the PDI [2] was 15.1%, the Particle size [2] was 135 nm and the “average radiation intensity” value (female BALB/C mice; 6 h) was 638870. The “average radiation intensity” value (female BALB/C mice; 24 h) was 109650, the “average radiation intensity” value (female BALB/C mice; 48 h) was 29445 and the “average radiation intensity” value (female BALB/C mice; 7 d) was 5312. The Cell survival rate (293T cells [3]) was 65.56%, the “Relative light unit (RLU)” value (293T cells [4]) was 2099714 RLU and the “Multiples … to YK-201” value (293T cells [4]) was 13.56. The “Multiples … to YK-202” value (293T cells [4]) was 14.27 and the “Ratio relative to SM-102” value (293T cells [4]) was 1.26.
